Literature values as cited in paper PMC9308844, “Development of new copper-64 labeled rhodamine: a potential PET myocardial perfusion imaging agent” (EJNMMI Radiopharmacy and Chemistry, 2022).

Parameters: method as in earlier work
Details: ref Baranyai et al. [2020]; Clarke et al. 1990; Clarke and Martell [1991a], [b]; Wadas et al. [2010]; Tolmachev et al. [2017]

Log K of Cu^II complex: 21.6
SMILES: O=C([O-])CN1CCN(CC(=O)[O-])CCN(CC(=O)[O-])CC1.[Cu+2] [[Cu^II NOTA]]
